In ChEMBL document CHEMBL3243999, “Novel anxiolytic agents derived from alpha-amino-alpha-phenyl-o-tolyl-4H-triazoles and -imidazoles” (J Med Chem, 1978):

Tests used:
[1] = system: Mus musculus; assay: Anticonvulsant activity in ip dosed CF-1 albino mouse assessed as antagonism of pentylenetetrazole-induced clonic convulsions; format: functional
[2] = system: Mus musculus; assay: Anticonvulsant activity in ip dosed CF-1 albino mouse assessed as antagonism of nicotine-induced tonic extensor convulsions; format: functional
[3] = system: Mus musculus; assay: Drug metabolism in mouse silylated blood assessed as triazolobenzodiazepine metabolite formation at 30 mg/kg, ip after 30 mins by GC-MS analysis; format: ADME, organism-based; set-up: dose 30 mg/kg, route intraperitoneal; conditions: in vivo, 0.5 h
[4] = system: Mus musculus; assay: Anticonvulsant activity in ip dosed CF-1 albino mouse assessed as antagonism of thiosemicarbazide-induced lethality; format: functional; conditions: CF-1, ip
[5] = system: Brain; assay: Drug metabolism in mouse brain assessed as un-identified metabolite formation at 20 mg/kg, ip after 0.5 hrs by GLC-electron capture detection analysis; format: ADME, organism-based; set-up: dose 20 mg/kg, route intraperitoneal; conditions: in vivo
[6] = system: Mus musculus; assay: Anxiolytic activity in ip dosed CF-1 albino mouse assessed as antagonism of electric shock-induced effect; format: functional; conditions: CF-1, ip
[7] = system: Mus musculus; assay: Sedative activity in ip dosed CF-1 albino mouse assessed as muscle relaxation by measuring depression of traction; format: functional
[8] = system: Rattus norvegicus; assay: Anticonvulsant activity in po dosed Sprague-Dawley rat assessed as antagonism of pentylenetetrazole-induced clonic convulsions; format: functional
[9] = system: Mus musculus; assay: Muscle relaxing activity in ip dosed CF-1 albino mouse by chimney test; format: functional
[10] = system: Mus musculus; assay: Anticonvulsant activity in ip dosed CF-1 albino mouse assessed as antagonism of nicotine-induced death; format: functional
[11] = system: Brain; assay: Drug metabolism in Sprague-Dawley rat brain assessed as triazolam metabolite formation at 20 mg/kg, ip after 0.5 hrs by GLC-electron capture detection analysis; format: ADME, organism-based; set-up: dose 20 mg/kg, route intraperitoneal; conditions: in vivo
[12] = system: Mus musculus; assay: Muscle relaxing activity in ip dosed CF-1 albino mouse assessed as depression of dish reflexes; format: functional
[13] = system: Brain; assay: Drug metabolism in mouse brain assessed as unchanged drug level at 20 mg/kg, ip after 20 mins by GC-MS analysis; format: ADME, organism-based; set-up: dose 20 mg/kg, route intraperitoneal; conditions: in vivo
[14] = Retention time of the compound by GLC-electron capture detection analysis; format: physicochemical
[15] = system: Brain; assay: Drug metabolism in Sprague-Dawley rat brain assessed as unchanged drug level at 20 mg/kg, ip after 20 mins by GC-MS analysis; format: ADME, organism-based; set-up: dose 20 mg/kg, route intraperitoneal; conditions: in vivo
[16] = system: Mus musculus; assay: Anticonvulsant activity in po dosed CF-1 albino mouse assessed as antagonism of pentylenetetrazole-induced clonic convulsions; format: functional; conditions: CF-1, po
[17] = system: Brain; assay: Drug level in mouse brain treated with (5-chloro-2-(3,5-dimethyl-4H-1,2,4-triazol-4-yl)phenyl)(2-chlorophenyl)methanamine at 20 mg/kg, ip after 20 mins by GC-MS analysis; format: ADME, organism-based; set-up: dose 20 mg/kg, route intraperitoneal; conditions: in vivo
[18] = system: Brain; assay: Retention time of the compound in mouse brain treated with (5-chloro-2-(3,5-dimethyl-4H-1,2,4-triazol-4-yl)phenyl)(2-chlorophenyl)methanamine at 20 mg/kg, ip after 0.5 hrs by GLC-electron capture detection analysis; format: ADME, organism-based; set-up: dose 20 mg/kg, route intraperitoneal; conditions: in vivo
[19] = system: Brain; assay: Drug level in Sprague-Dawley rat brain treated with (5-chloro-2-(3,5-dimethyl-4H-1,2,4-triazol-4-yl)phenyl)(2-chlorophenyl)methanamine at 20 mg/kg, ip after 20 mins by GC-MS analysis; format: ADME, organism-based; set-up: dose 20 mg/kg, route intraperitoneal; conditions: in vivo
[20] = Mus musculus, CF-1, ip, read-out: ED50

SMILES | ED50 [1, 20] | ED50 [2, 20] | ED50 [4] | ED50 [6] | ED50 [7, 20] | ED50 [9, 20] | ED50 [10, 20] | ED50 [12, 20] | further results
Cc1nnc(C)n1-c1ccc(Cl)cc1C(N)c1ccccc1 (stereo unspecified) | 16 mg/kg | – | – | – | – | – | – | – | –
Cc1nnc(C)n1-c1ccc(Cl)cc1C(N)c1ccccc1Cl (stereo unspecified) | 1.2 mg/kg | 0.5 mg/kg | 0.4 mg/kg | > 100 mg/kg | > 100 mg/kg | 6.3 mg/kg | 0.5 mg/kg | 3.2 mg/kg | Drug metabolism [3]: metabolite_detected; Drug metabolism [5]: metabolite_detected; ED50 [8]: > 50 mg/kg; Drug metabolism [11]: metabolite_notdetected; Drug metabolism [13]: 65 ng; Retention_time [14]: 9 min; Drug metabolism [15]: 272 ng
CC(C)=NC(c1ccccc1Cl)c1cc(Cl)ccc1-n1c(C)nnc1C (stereo unspecified) | 1.2 mg/kg | 0.75 mg/kg | 0.34 mg/kg | – | > 30 mg/kg | 6 mg/kg | 0.85 mg/kg | 6.6 mg/kg | –
Cc1nnc(CN(C)C)n1-c1ccc(Cl)cc1C(N)c1ccccc1Cl (stereo unspecified) | 0.2 mg/kg | 0.25 mg/kg | 0.09 mg/kg | 40 mg/kg | 1.4 mg/kg | 0.71 mg/kg | 0.18 mg/kg | 0.56 mg/kg | ED50 [8]: 4.4 mg/kg; ED50 [16]: 0.6 mg/kg
CN/N=C/c1nnc(C)n1-c1ccc(Cl)cc1C(N)c1ccccc1Cl (stereo unspecified) | 1.2 mg/kg | 1.3 mg/kg | – | > 100 mg/kg | 20 mg/kg | 7 mg/kg | 1.4 mg/kg | 0.4 mg/kg | –
Cc1cn(-c2ccc(Cl)cc2C(N)c2ccccc2Cl)c(C)n1 (stereo unspecified) | – | 3.6 mg/kg | 1.8 mg/kg | > 100 mg/kg | > 100 mg/kg | > 100 mg/kg | 3.6 mg/kg | 20 mg/kg | –
Br.Cc1nccn1-c1ccc(Cl)cc1C(N)c1ccccc1 (stereo unspecified) | – | 9 mg/kg | – | – | 32 mg/kg | 18 mg/kg | 9 mg/kg | 16 mg/kg | –
Cc1nnc(CN)n1-c1ccc(Cl)cc1Cc1ccccc1 | 12.5 mg/kg | 7 mg/kg | – | – | 25 mg/kg | 18 mg/kg | 6.2 mg/kg | 14 mg/kg | –
Cc1nnc(CN(C)C)n1-c1ccc(Cl)cc1C(=O)c1ccccc1Cl | 0.28 mg/kg | 0.14 mg/kg | 0.02 mg/kg | 50 mg/kg | 3.2 mg/kg | – | 0.14 mg/kg | 0.25 mg/kg | –
Cc1nnc(/C=N/N(C)C)n1-c1ccc(Cl)cc1C(N)c1ccccc1Cl (single isomer, unassigned) | – | – | – | – | – | – | – | – | ED50 [1]: 5.6 mg/kg; ED50 [2]: 4 mg/kg; ED50 [7]: 50 mg/kg; ED50 [9]: 16 mg/kg; ED50 [10]: 4 mg/kg; ED50 [12]: 7.1 mg/kg
Cc1nnc(C2CC2)n1-c1ccc(Cl)cc1C(N)c1ccccc1Cl (single isomer, unassigned; isomer 1) | 40 mg/kg | 2.3 mg/kg | – | – | > 50 mg/kg | 40 mg/kg | 2.3 mg/kg | – | ED50 [12]: 4.5 mg/kg
Cc1nnc(CO)n1-c1ccc(Cl)cc1C(N)c1ccccc1Cl (single isomer, unassigned; isomer 1) | 1.2 mg/kg | 0.4 mg/kg | – | – | 16 mg/kg | 0.63 mg/kg | 0.5 mg/kg | – | ED50 [8]: > 50 mg/kg; ED50 [16]: 6.2 mg/kg; ED50 [12]: 1.1 mg/kg
Cc1nnc(/C=N/N(C)C)n1-c1ccc(Cl)cc1C(N)c1ccccc1Cl (single isomer, unassigned; isomer 1) | 8.9 mg/kg | 5.6 mg/kg | – | > 100 mg/kg | 71 mg/kg | 22 mg/kg | 8 mg/kg | 11.2 mg/kg | –
Cc1nnc(CO)n1-c1ccc(Cl)cc1C(N)c1ccccc1Cl (single isomer, unassigned; isomer 2) | – | – | – | – | – | – | – | – | ED50 [1]: 1 mg/kg; ED50 [2]: 0.3 mg/kg; ED50 [7]: 8 mg/kg; ED50 [9]: 0.5 mg/kg; ED50 [10]: 0.3 mg/kg; ED50 [12]: 3.5 mg/kg
Cc1nnc(C2CC2)n1-c1ccc(Cl)cc1C(N)c1ccccc1Cl (stereo in doubt; 21b) | – | – | – | – | – | – | – | – | ED50 [1]: >50 mg/kg; ED50 [2]: 2.8 mg/kg; ED50 [7]: >100 mg/kg; ED50 [9]: 56 mg/kg; ED50 [10]: 2 mg/kg; ED50 [12]: 40 mg/kg
Cc1nnc2n1-c1ccc(Cl)cc1C(c1ccccc1)=NC2 [ALPRAZOLAM] | – | – | – | – | – | – | – | – | Retention_time [14]: 12 min
CN1C(=O)CN=C(c2ccccc2)c2cc(Cl)ccc21 [DIAZEPAM] | 0.8 mg/kg | 0.11 mg/kg | 0.2 mg/kg | 20 mg/kg | 5 mg/kg | – | 0.11 mg/kg | 0.31 mg/kg | ED50 [8]: 4.8 mg/kg
Cc1nnc2n1-c1ccc(Cl)cc1C(c1ccccc1Cl)=NC2 [TRIAZOLAM] | 0.04 mg/kg | 0.04 mg/kg | 0.028 mg/kg | 23 mg/kg | 0.7 mg/kg | 0.056 mg/kg | 0.04 mg/kg | 0.1 mg/kg | Drug metabolism [17]: 190 ng; ED50 [8]: 0.18 mg/kg; Retention_time [18]: 15 min; Drug metabolism [19]: 4 ng; Retention_time [14]: 15 min
